Source: patent US6060568A, “Carbene transition metal catalysts” (The Governors of the University of Alberta, priority 1999, dated 2000)

Assays:
[1] = Low temperature and pressure slurry polymerization on catalyst screening unit (CSU); conditions: 10 psig
Experimental: Low pressure and temperature slurry polymerization experiments were conducted on a catalyst screening unit (CSU) where polymerization occurs in a cyclohexane reaction media, ethylene is fed to the reactor on demand and is monitored by a mass flow meter. On the CSU, reaction temperatures are monitored and controlled by thermocouples and one RTD. Reactor temperature control is maintained by a HAAKE circulating water bath which has external thermostatic control via the thermocouple at the reactor core. Reactor temperature is maintained by the water from the bath entering the jacket-like coolant chamber surrounding the reactor. Reaction pressures are indicated by mechanical pressure gauges and monitored manually.
The CSU shares the purified ethylene and cyclohexane feeds with the solution semi-batch reactor (SBR). Ultra-High-Purity argon from PRAXAIR which is purified further by 13× and OXICLEAR on a separate gas purification unit is used for reactor system purging and solvent sparging. The polymerization products are quantitatively recovered for mass determination, and polymerization activities are then calculated based upon mass of product, millimoles of catalyst injected and reaction time.
Examples 25-32 were conducted on a catalyst screening unit (CSU).
Catalyst Concentration 50 μmol/L (Zr)
Catalyst Mole Ratio Al/Zr = 500/1
Polymethylaluminoxane (PMAO-IP)
Reaction Temperature Setpoint 35° C.
Reactor Pressure Setpoint 10 psig total
Stirring Speed ~2250 +/- 300 rpm Initially
Catalyst Concentration 50 μmol/L (M)
Catalyst Mole Ratio Al/B/M = 20/1.05/1
Modified Methylaluminoxane (MMAO-

[2] = Solution phase ethylene polymerization, semi-batch reactor (SBR)
Experimental: (§1) All the solution polymerization experiments described below were conducted using an Autoclave Engineers Zipperclave reactor (500 mL). All the chemicals (solvent, catalyst and cocatalyst) were fed into the reactor batchwise except ethylene which was fed on demand. No product was removed during the polymerization reaction. As are known to those skilled in the art, all the feed streams were purified prior to feeding into the reactor by contact with various absorption media to remove catalysts killing impurities such as water, oxygen, sulfur and polar materials. All components were stored and manipulated under an atmosphere of purified argon or nitrogen. The reactor uses a programmable logical control (PLC) system with Wonderware 5.1 s, oftware for the process control. Ethylene polymerizations were performed in the reactor equipped with an air driven stirrer and an automatic temperature control system.
The catalyst was dissolved in toluene. The polymerization reaction time is typically 10 minutes. The reaction was terminated by adding 5 mL of methanol to the reactor and the polymer was recovered by evaporation of the solvent. The polymerization activities were calculated based on the ethylene consumption.
Examples 1-18 were conducted on a solution semi-batch reactor (SBR).
SBR Experimental Conditions with MAO Activation
Catalyst Concentration 200 μmol/L
PMAO-IP Al/Zr = 300 (mol/mol)
Reaction Temperature 160° C.
Reactor Pressure 140 psig total
Stirring Speed 2000 rpm
SBR Experirimental Conditions with Trinitylborate Activation
PMAO-IP 1 mmol/L as impurity scavenger
^a SBR standard MAO screening conditions.
^b Insitu alkylation: PMAOIP (Al/M = 20) premixed with catalyst, the
mixture and tritylborate solution were injected into the reactor
^c SBR standard trityl borate screening conditions.
^d Premix catalyst and cocatalyst.
^e Zr(Bz)4 as scavenger at 1.2 mmol/L. […]

[3] = Solution phase copolymerization of ethylene with 1-octene, semi-batch reactor (SBR); conditions: [CPh3 ][B(C6 F5)4 ]; copolymerization with 20 mL of 1-octene; based on polymer weight
Experimental: Polymer molecular weights and molecular weight distributions were measured by GPC (Waters 150-C) at 140° C. in 1,2,4-trichlorobenzene calibrated using polyethylene standards.
as §1
The catalyst was dissolved in toluene. The polymerization reaction time is typically 10 minutes. […] The polymerization activities were calculated based on the ethylene consumption. […]
were calculated based on polymer weight. 20.7 Br/1000 C detected by NMR […]

[4] = High temperature and pressure slurry polymerization, supported catalyst; conditions: slurry in hexane, 200 psig, 90° C., 60 minutes
Experimental: The supported catalyst described in Part B was also used for the slurry polymerization tests.
(§2) All the polymerization experiments described below were conducted using a semi-batch reactor of total internal volume of 2.2 L. Reaction gas mixtures, including ethylene were measured to the reactor on a continuous basis using a calibrated thermal mass flow meter, following passage through purification media as described above. A pre-determined mass of the catalyst sample as added to the reactor under the flow of the inlet gas with no pre-contact of the catalyst with any reagent, such as a catalyst activator. The catalyst was activated in situ (in the polymerization reactor) at the reaction temperature in the presence of the monomer, using a metal alkyl complex and solvent which have been previously added to the reactor to remove adventitious impurities.
(§3) The internal reactor temperature is monitored by a thermocouple in the polymerization medium and can be controlled at the required set point to +/-1.0° C. The duration of the polymerization experiment was one hour. Following the completion of the polymerization experiment, the slurry was transferred from the reactor to a bowl, and the solvent was left to evaporate. The following table illustrates bench scale slurry phase reaction conditions.
Operating Mode Slurry Phase
(§4) Aluminum alkyl 25-30 wt. % triisobutyl aluminum
(§5) Reaction Pressure 200 psig
(§6) Reaction Temperature 90° C.
(§7) Reaction Time 60 minutes
Examples 23-24 are high pressure and temperature slurry polymerization examples. The next table illustrates data concerning the Al/transition metal ratios of the supported catalyst; polymer yield and polymer properties.

[5] = Gas phase polymerization, supported catalyst, semi-batch gas phase reactor; conditions: 200 psig, 90° C., 60 minutes; for Yield PE: 50-54 mg supported catalyst
Excerpt: The catalyst preparation methods described below employ typical techniques for the syntheses and handling of air-sensitive materials. Standard Schlenk and drybox techniques were used in the preparation of ligands, metal complexes, support substrates and supported catalyst systems. Solvents were purchased as anhydrous materials and further treated to remove oxygen and polar impurities by contact with a combination of activated alumina, molecular sieves and copper oxide on silica/alumina. Where appropriate, elemental compositions of the supported catalysts were measured by Neutron Activation analysis and a reported accuracy of ±1% (weight basis).
The supported catalysts were prepared by initially supporting MAO on a silica support, followed by deposition of the catalyst component.
as §2, with “a semi-batch, gas phase polymerization” for “a semi-batch”, “sample was” for “sample as”, “complex” for “complex and solvent”, “which has” for “which have”, “impurities. Purified and rigorously anhydrous sodium chloride was used as a catalyst dispersing agent.” for “impurities.”
as §3, with “the polymer” for “the slurry”, “was separated” for “was transferred”, “the sodium chloride” for “the reactor to a bowl,”, “the yield determined.” for “the solvent was left to evaporate.”, “scale gas” for “scale slurry”
Solvent 5-10 mL hexane added with catalyst
Operating Mode Gas Phase
as §4, §5, §6, §7
Examples 19-22 are examples of the gas phase polymerization. The next table illustrates data concerning the Al/transition metal ratios of the supported catalyst, polymer yield and polymer properties.

[6] = SBR standard MAO screening: PMAO-IP, Al/Zr = 300, 160° C., 140 psig
[7] = MMAO-7/[CPh3 ][B(C6 F5)4 ], Al/B/M = 20/1.05/1, 35° C.
[8] = SBR standard trityl borate screening: [CPh3 ][B(C6 F5)4 ], 160° C., 140 psig
[9] = [CPh3 ][B(C6 F5)4 ], in situ alkylation, PMAO-IP (Al/M = 20) premixed with catalyst, 160° C.

Compound | Activity ([1]; PMAO-IP, Al/Zr = 500/1, 35° C.) | Activity [2, 6] | Activity [2, 8] | Yield per catalyst [5] | Yield per metal [5] | Yield PE [5] | also measured
[Cl][Zr+2][Cl].c1cc[cH-]c1.c1cc[cH-]c1 [Cp2 ZrCl2, reference compound] | 2692 gPE/mmol cat*hr | 1339.9 gPE/mmol cat*hr | – | – | – | – | –
[ZrMe2 {C(Cy2 =NSiMe3)2 }] [Zr-3C-Me2] | – | – | 56.8 gPE/mmol cat*hr | – | – | – | Activity [3]: 8.22 gPE/mmol cat*hr; Activity [1, 7]: 29 gPE/mmol cat*hr
[ZrCl2 {C(Ph2 P=NSiMe3)2 }] [Zr-3D] | 1 gPE/mmol cat*hr | 14.2 gPE/mmol cat*hr | – | 0 gPE/g Catalyst | 0 gPE/g Metal | 0 g | Yield per catalyst [4]: 4 gPE/g Catalyst; Yield per metal [4]: 915 gPE/g Metal; Yield PE ([4]; 122-137 mg supported catalyst): 0.6 g
[Zr{C(Ph2 P=NSimMe3)2 }(CH2 C6 H5)2 ] [Zr-6D] | 13 gPE/mmol cat*hr | – | 11.6 gPE/mmol cat*hr | – | – | – | Activity [3]: 10.5 gPE/mmol cat*hr; Activity ([2]; [CPh3 ][B(C6 F5)4 ], Zr(Bz)4 as scavenger at 1.2 mmol/L, 160° C.): 14.4 gPE/mmol cat*hr; Activity ([2]; [CPh3 ][B(C6 F5)4 ], premix catalyst and cocatalyst, 160° C.): 42.7 gPE/mmol cat*hr; Activity ([2]; cocatalyst B(C6 F5)3, footnote c standard trityl borate screening conditions, 160° C.): 9.12 gPE/mmol cat*hr
[ZnMe{HC(Ph2 P=NSiMe3)2 }] [AK-17] | – | – | 89.78 gPE/mmol cat*hr | 0 gPE/g Catalyst | 0 gPE/g Metal | 0 g | Activity [1, 7]: 4 gPE/mmol cat*hr
[ZrCl2 {C(Cy2 =NSiMe3)2 }] [Zr-3C] | 0 gPE/mmol cat*hr | 22.7 gPE/mmol cat*hr | – | – | – | – | Activity [2, 9]: 70.6 gPE/mmol cat*hr
[ZrCl2 {(C(O)(NAd))C(Ph2 P=NSiMe3)2 }] [KB-103] | 0 gPE/mmol cat*hr | 129.0 gPE/mmol cat*hr | – | 8 gPE/g Catalyst | 1607 gPE/g Metal | 0.4 g | Activity [2, 9]: 498.7 gPE/mmol cat*hr
